Earlier results on 2 compounds are cited in patent publication US20090062317A1, “MEDICINAL USE OF RECEPTOR LIGANDS” (7TM PHARMA A/S, priority 2004, published 2009).

For this series, the system named is rats. To be noted: literature reports.

`CN(C)CC1CCc2cc(NC(=O)c3ccc(-c4ccc(F)cc4)cc3)ccc2C1` (centres unmarked) [Example T-226296]: the “food intake induced by i.c.v.-injected MCH” value is reported as “suppress food intake”.

Consider `COCC1=C(C(=O)OC)[C@H](c2ccc(F)c(F)c2)N(C(=O)NCCCN2CCC(c3cccc(NC(C)=O)c3)CC2)C(=O)N1` [SNAP-7941], for which the “food intake induced by i.c.v.-injected MCH” value is “suppress food intake”.
